The values that follow come from patent publication US11505558B1, “Antiviral heterocyclic compounds” (Enanta Pharmaceuticals, Inc., priority 2019, dated 2022).

This experiment has as its system genotype A, "Long" strain RSV. In words: RSV-A assay (CPE, ATPlite readout in Hep-2 cells). Particulars: human respiratory syncytial virus, HEp-2, Hep-2 cells, genotype A "Long" strain RSV, MOI 0.1; read-out: Human RSV-A (“Long” strain) EC50. The experiment is classed as cell-based. The procedure, abridged: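 Hep-2 cells (8,000/well) received 2-fold serial compound dilutions in duplicate and RSV Long strain at MOI 0.1. After 5 days' incubation, cell health was read as ATP by ATPlite luminescence, with virus-only and uninfected controls defining max and minimum CPE; EC50 reported.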
Regarding `Cn1c(=O)[nH]c2ccc(C(=O)NC[C@](O)(c3cc4c(c(-c5ccc(F)cc5)n3)OC[C@]4(C)C(N)=O)C(F)(F)F)cc21` [Example 326], the 50% effective concentration (EC50) was greater than 200 nM.
Regarding `C[C@]1(C(N)=O)COc2c1cc([C@@](O)(CNC(=O)c1ccc3ncc(=O)[nH]c3c1)C(F)(F)F)nc2-c1ccc(F)cc1` [Example 327], the concentration for a half-maximal effect (EC50) was greater than 200 nM.
For `Cn1c(=O)oc2ccc(C(=O)NC[C@](O)(c3cc4c(c(-c5ccc(F)cc5)n3)OC[C@]4(C)C(N)=O)C(F)(F)F)cc21` [Example 328], the 50% effective concentration (EC50) is greater than 200 nM.
On to `COc1cc(C(=O)NC[C@](O)(C2=CC3C(OC[C@]3(C)C(N)=O)C(c3ccc(F)cc3)=N2)C(F)(F)F)ccc1Cl` (stereo partly drawn) [Example 329], for which the EC50 is less than 200 nM.
Turning to `COc1ccc(C(=O)NC[C@](O)(c2cc3c(c(-c4ccc(F)cc4)n2)OC[C@]3(C)C(N)=O)C(F)(F)F)cc1Cl` [Example 330], the EC50 is less than 200 nM.
As for `COc1ccc2c(C(=O)NC[C@](O)(c3cc4c(c(-c5ccc(F)cc5)n3)OC[C@]4(C)C(N)=O)C(F)(F)F)n[nH]c2c1` [Example 331], the half-maximal effective concentration (EC50) was greater than 200 nM.
Take `COc1cc(OC)c2cc(C(=O)NC[C@](O)(c3cc4c(c(-c5ccc(F)cc5)n3)OC[C@]4(C)C(N)=O)C(F)(F)F)[nH]c2c1` [Example 332]: the 50% effective concentration (EC50) is less than 200 nM.
`Cn1cnc2cc(C(=O)NC[C@](O)(c3cc4c(c(-c5ccc(F)cc5)n3)OC[C@]4(C)C(N)=O)C(F)(F)F)ccc21` [Example 333]: the EC50 was greater than 200 nM.
For the molecule `Cn1cnc2ccc(C(=O)NC[C@](O)(c3cc4c(c(-c5ccc(F)cc5)n3)OC[C@]4(C)C(N)=O)C(F)(F)F)cc21` [Example 334], the EC50 is greater than 200 nM.
Consider `C[C@]1(C(N)=O)COc2c1cc([C@@](O)(CNC(=O)c1cc(Nc3ccccn3)c3ncccc3c1)C(F)(F)F)nc2-c1ccc(F)cc1` [Example 338], for which the concentration giving a half-maximal response (EC50) was less than 200 nM.
With `C[C@]1(C(N)=O)COc2c1cc([C@@](O)(CNC(=O)c1cc(Nc3ccncn3)c3ncccc3c1)C(F)(F)F)nc2-c1ccc(F)cc1` [Example 343], the EC50 is less than 200 nM.
To `Cc1cc(C)nc(Nc2cc(C(=O)NC[C@](O)(c3cc4c(c(-c5ccc(F)cc5)n3)OC[C@]4(C)C(N)=O)C(F)(F)F)cc3cccnc23)n1` [Example 344] belongs less than 200 nM; to `COc1cc(Nc2cc(C(=O)NC[C@](O)(c3cc4c(c(-c5ccc(F)cc5)n3)OC[C@]4(C)C(N)=O)C(F)(F)F)cc3cccnc23)nc(OC)n1` [Example 345], greater than 200 nM.
As for `Cc1cnc2c(Nc3ncccn3)cc(C(=O)NC[C@](O)(c3cc4c(c(-c5ccc(F)cc5)n3)OC[C@]4(C)C(N)=O)C(F)(F)F)cc2c1` [Example 346], the EC50 is less than 200 nM.
To `C[C@]1(C(N)=O)COc2c1cc([C@@](O)(CNC(=O)c1cc(Nc3cccnn3)c3ncccc3c1)C(F)(F)F)nc2-c1ccc(F)cc1` [Example 347] belongs less than 200 nM; to `C[C@]1(C(N)=O)COc2c1cc([C@@](O)(CNC(=O)c1cc(Nc3ccnnc3)c3ncccc3c1)C(F)(F)F)nc2-c1ccc(F)cc1` [Example 348], less than 200 nM; to `C[C@]1(C(N)=O)COc2c1cc([C@@](O)(CNC(=O)c1cc(Nc3ncc(F)cn3)c3ncccc3c1)C(F)(F)F)nc2-c1ccc(F)cc1` [Example 349], less than 200 nM.
`C[C@]1(C(N)=O)COc2c1cc([C@@](O)(CNC(=O)c1cc(-c3ccncc3)c3ncccc3c1)C(F)(F)F)nc2-c1ccc(F)cc1` [Example 351]: the half-maximal effective concentration (EC50) was less than 200 nM.
Take `C[C@]1(C(N)=O)COc2c1cc([C@@](O)(CNC(=O)c1cc(-c3cnc(N)nc3)c3ncccc3c1)C(F)(F)F)nc2-c1ccc(F)cc1` [Example 352]: the concentration for a half-maximal effect (EC50) is less than 200 nM.
With `C[C@]1(C(N)=O)COc2c1cc([C@@](O)(CNC(=O)c1cc(-c3ccccn3)c3ncccc3c1)C(F)(F)F)nc2-c1ccc(F)cc1` [Example 353], the EC50 was less than 200 nM.
As for `C[C@]1(C(N)=O)COc2c1cc([C@@](O)(CNC(=O)c1cc(-c3ncccn3)c3ncccc3c1)C(F)(F)F)nc2-c1ccc(F)cc1` [Example 354], the EC50 is greater than 200 nM.
